This note sets out measurements from EP3861991A1, “COMPOSITION FOR PREVENTING AND TREATING ACUTE AND CHRONIC WOUNDS” (Foodar Advanced Research S.r.l., priority 2020, dated 2021).

In this test the test system is HDF cells. Kind of test: Scratch assay: fibroblast cell migration and wound closure. Type of test: cell-based, Human. Conditions: 10 µM, single components, Fig. 2. The method, then:
Human dermal fibroblasts (HDF) (ATCC, Manassas, VA, USA) were grown in fibroblast basal medium supplemented with fibroblast growth kit-serum free (ATCC). Activation, proliferation and migration of fibroblasts are the primary steps in wound healing, where multiple cell types and other micro environmental factors are involved. Scratch assay is a widely applied In vitro technique for understanding the wound healing capabilities of medicinally important compounds. HDF cells were seeded in 6-well plates and were cultured overnight. Cells were then washed with Delbucco's Phosphate Buffered Saline (DPBS) and a scratch was made with a sterile 200µL tip. The detached cells and other cellular debris were removed by washing the cells with DPBS. The cells were treated with 10 µM of AND (source of Example 1), HYX (source of Example 1), or AND + HYX (1/1 ratio, same sources) and incubated for 24 h. Untreated cells were negative control. […] The experiments were performed in triplicate (n = 3). The width of the scratch and wound closure at different time intervals (0, 12, 24 and 48hrs) was analyzed by Image J software.

For `C=C1CC[C@@H]2[C@](C)(CO)[C@H](O)CC[C@@]2(C)[C@@H]1C/C=C1/C(=O)OC[C@H]1O` [AND, 3-[2-[Decahydro-6-hydroxy-5-(hydroxymethyl)-5,8a-dimethyl-2-methylene-1-napthalenyl]ethylidene]dihydro-4-hydroxy-2(3H)-furanone], the “percentage of cell migration (in words, relative to the AND+HYX combination)” value is “well lower”.
